System: Jurkat (FADD−/−) cells
Assay: Inhibition of TNF-induced programmed Jurkat (FADD−/−) cell necrosis (Cell Titer-Glo)
Assay type: cell-based, human
Settings: Homo sapiens, Jurkat, 20 h, TNF 10 ng/mL, intracellular ATP level, read-out: Cellular IC50 (M) Jurkat (FADD−/−)
Protocol: Two replicate wells were set for each concentration of each compound.
Jurkat (FADD^−/−) cells (human-derived peripheral blood leukemia T cell line, with FADD gene knocked out) were cultured in vitro. After growing to logarithmic growth phase, the cells were harvested, and centrifuged at 1000 rpm for 5 min. The supernatant was discarded, and the cells were resuspended in fresh medium and adjusted to a cell density of 5×10^5/mL. The cell suspension was added to the culture plate containing the drug (40 μL per well). In the treatment groups, 10 μL of TNF (tumor necrosis factor, final concentration 10 ng/mL) diluted with the cell culture medium was added to each well, and incubated for 20 h in a cell incubator (37° C., 5% CO2). Subsequently, 50 μL of Cell Titer-Glo solution was added to each well and incubated at room temperature for 10 min. Then, the luminescence was detected on BioTek plate reader to measure the intracellular ATP level. The effect of the test compounds in inhibiting TNF-induced cell necrosis was calculated from the full-activity well and background well (with the untreated DMSO control well as 100% cell viability), and the half inhibitory concentration (IC50) of the compound was calculated by Graphpad Prism statistical software.

Structure (SMILES) | IC50
CN1C(=O)[C@@H](NC(=O)c2cc(Cc3ccccc3)on2)CSc2cc3[nH]nc(Cl)c3cc21 [RIP1-029] | 1.2e-10 M
CN1C(=O)[C@@H](NC(=O)c2nccc(Oc3ccccc3)n2)COc2cc3nccnc3cc21 [RIP1-215] | 3.45e-07 M
CN1C(=O)[C@@H](NC(=O)c2cc(Cc3ccccc3)on2)COc2cc3[nH]c(C(F)(F)F)nc3cc21 [RIP1-077] | 1.68e-08 M
CN1C(=O)[C@@H](NC(=O)c2n[nH]c(Cc3ccc(F)cc3)n2)COc2cc3occc3cc21 [RIP1-174] | 1.3e-08 M
CN1C(=O)[C@@H](NC(=O)c2cnc(Cc3ccccc3)o2)COc2cc3[nH]c(C(F)(F)F)nc3cc21 [RIP1-079] | > 2e-06 M
CN1C(=O)[C@@H](NC(=O)c2n[nH]c(Cc3cccc(F)c3)n2)COc2ccc3cnccc3c21 [RIP1-165] | 2.5e-09 M
COc1ncnc2cc3c(cc12)N(C)C(=O)[C@@H](NC(=O)c1n[nH]c(Cc2c(F)cc(F)cc2F)n1)CO3 [RIP1-157] | 2.49e-07 M
CN1C(=O)[C@@H](NC(=O)c2nnc(Cc3ccccc3)o2)CSc2cc3[nH]ccc3cc21 [RIP1-041] | 3.79e-10 M
CN1C(=O)[C@@H](NC(=O)c2cc(Oc3cc(F)cc(F)c3)ccn2)COc2ccc3ncccc3c21 [RIP1-205] | 7.11e-09 M
CN1C(=O)[C@@H](NC(=O)c2cc(Oc3ccccc3)ccn2)COc2cc3ncoc3cc21 [RIP1-186] | 7.52e-10 M
CN1C(=O)[C@@H](NC(=O)c2nc(Cc3ccccc3)n[nH]2)COc2cc3[nH]c(=O)[nH]c3cc21 [RIP1-076] | > 2e-06 M
CN1C(=O)[C@@H](NC(=O)c2cc(Nc3ccccc3)ccn2)COc2ccc3ncccc3c21 [RIP1-200] | 8.18e-08 M
O=C(N[C@H]1COc2ccc3cccnc3c2NC1=O)c1n[nH]c(Cc2ccccc2)n1 [RIP1-149] | > 2e-06 M
CN1C(=O)[C@@H](NC(=O)c2ccnc(Nc3ccccc3)n2)COc2ccc3ncccc3c21 [RIP1-202] | > 2e-05 M
Cc1ccc(Cc2cc(C(=O)N[C@H]3COc4cc5[nH]c(C)nc5cc4N(C)C3=O)nn2C)cc1 [RIP1-072] | 9.65e-08 M
CN1C(=O)[C@@H](NC(=O)c2cncn2Cc2ccccc2)CSc2cc3c(ccn3C)cc21 [RIP1-054] | > 2e-06 M
CN1C(=O)[C@@H](NC(=O)c2cn(Cc3ccccc3)nn2)COc2cc3[nH]ncc3cc21 [RIP1-024] | 2.03e-09 M
Cc1ccc(Cc2cc(C(=O)N[C@H]3CSc4cc5[nH]ccc5cc4N(C)C3=O)n(C)n2)cc1 [RIP1-044] | 1.91e-08 M
CN1C(=O)[C@@H](NC(=O)c2ncn(Cc3ccccc3)n2)CSc2cc3[nH]ncc3cc21 [RIP1-020] | 2.3e-10 M
CN1C(=O)[C@@H](NC(=O)c2ncn(Cc3ccccc3)n2)CSc2ccc3cnccc3c21 [RIP1-103] | 6.75e-09 M
CN1C(=O)[C@@H](NC(=O)c2cc(Oc3ccccc3)ccn2)COc2cc3[nH]nnc3cc21 [RIP1-181] | 5.92e-10 M
CN1C(=O)[C@@H](NC(=O)c2cc(Oc3ccccc3)ccn2)COc2cc3[nH]ccc3cc21 [RIP1-189] | 1.93e-10 M
CN1C(=O)[C@@H](NC(=O)c2cnnn2Cc2ccccc2)CSc2cc3c(ccn3C)cc21 [RIP1-052] | > 2e-06 M
CN1C(=O)[C@@H](NC(=O)c2cc(Cc3ccccc3)ccn2)COc2cc3ncoc3cc21 [RIP1-221] | 7.31e-09 M
CN1C(=O)[C@@H](NC(=O)c2ccnc(Oc3ccccc3)c2)COc2ccc3ncccc3c21 [RIP1-195] | 5.66e-06 M
CN1C(=O)[C@@H](NC(=O)c2cn(Cc3ccccc3)nn2)CSc2cc3[nH]ncc3cc21 [RIP1-019] | 6.8e-10 M

Reference: patent US20210292340A1, “CELL NECROSIS INHIBITOR, PREPARATION METHOD THEREFOR AND USE THEREOF” (SHANGHAI INSTITUTE OF ORGANIC CHEMISTRY, CHINESE ACADEMY OF …, priority 2018, published 2021)
